# Results taken from article PMC7914897, “Cytotoxic Potential of a-Azepano- and 3-Amino-3,4-SeCo-Triterpenoids” (International Journal of Molecular Sciences, 2021).
# How the values were obtained:
# SF-268 (CNS cancer) = test: NCI-60 screen (SRB, 48 h); details: Homo sapiens; for GI50: SF-268; for IC (TGI): SF-268, 48 h, read-out: TGI; for CC50: SF-268, read-out: LC50
# HOP-62 (NSC lung cancer) = test: NCI-60 screen (SRB, 48 h); details: Homo sapiens; for GI50: HOP-62; for IC (TGI): HOP-62, 48 h, read-out: TGI
# CCRF-CEM (Leukemia) = test: NCI-60 screen (SRB, 48 h); details: Homo sapiens; for CC50: read-out: LC50
# 786-0 (Renal cancer) = test: NCI-60 screen (SRB, 48 h); details: for GI50 / IC (TGI): Homo sapiens; for GI50: 786-0; for IC (TGI): 786-0, 48 h, read-out: TGI
# HT29 (Colon cancer) = test: NCI-60 screen (SRB, 48 h); details: Homo sapiens; for GI50: HT-29; for IC (TGI): HT-29, 48 h, read-out: TGI
# UACC-62 (Melanoma) = test: NCI-60 screen (SRB, 48 h); details: Homo sapiens; for GI50: UACC-62; for IC (TGI): UACC-62, 48 h, read-out: TGI
# DU-145 (Prostate cancer) = test: NCI-60 screen (SRB, 48 h); details: Homo sapiens; for GI50: DU-145; for IC (TGI): DU-145, 48 h, read-out: TGI; for CC50: DU-145, read-out: LC50
# Melanoma subpanel = test: NCI-60 screen, subpanel; details: Homo sapiens; for IC (TGI): 48 h, read-out: TGI MG_MID; for GI50: read-out: GI50 MG_MID; for CC50: read-out: LC50 MG_MID
# T-47D (Breast cancer) = test: NCI-60 screen (SRB, 48 h); details: Homo sapiens, T47D; for IC (TGI): 48 h, read-out: TGI
# [1] = tested on: NIH 3T3 (non-malignant mouse fibroblasts); test: SRB cytotoxicity assay, 72 h; type: cell-based; details: Mus musculus, NIH3T3; NIH 3T3, 72 h, cut-off 30 µM; read-out: EC50
# Method in brief: (§1)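 Cytotoxicity is measured colorimetrically with sulforhodamine B after 72 h exposure to compound concentrations of 0–30 µM, added 24 h after seeding of exponentially growing cells. Survival relative to untreated wells yields EC50.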
# [2] = tested on: A549/ATCC (NSC lung cancer); test: NCI-60 screen (SRB, 48 h); details: Homo sapiens; for GI50: A549; for IC (TGI): A549, 48 h, read-out: TGI
# SNB-75 (CNS cancer) = test: NCI-60 screen (SRB, 48 h); details: Homo sapiens; for GI50: SNB-75; for IC (TGI): SNB-75, 48 h, read-out: TGI; for CC50: SNB-75, read-out: LC50
# HCT-116 (Colon cancer) = test: NCI-60 screen (SRB, 48 h); details: Homo sapiens; for GI50: HCT-116; for activity at 10 µM: HCT-116, 48 h, read-out: Growth % of the Most Sensitive Cell Lines
# SW-620 (Colon cancer) = test: NCI-60 screen (SRB, 48 h); details: Homo sapiens; for GI50: SW-620; for IC (TGI): SW-620, 48 h, read-out: TGI
# ACHN (Renal cancer) = test: NCI-60 screen (SRB, 48 h); details: Homo sapiens; for IC (TGI): 48 h, read-out: TGI; for CC50: read-out: LC50
# [3] = tested on: A2780 (ovarian carcinoma); test: SRB cytotoxicity assay, 72 h; type: cell-based, human; details: Homo sapiens; A2780, 72 h, cut-off 30 µM; read-out: EC50
# Method in brief: as §1
# [4] = tested on: FaDu (hypopharyngeal carcinoma); test: SRB cytotoxicity assay, 72 h; type: cell-based, human; details: Homo sapiens, cut-off 30 µM, read-out: EC50
# Method in brief: as §1
# MCF-7 (breast carcinoma) = test: SRB cytotoxicity assay, 72 h; type: cell-based, human; details: Homo sapiens, MCF7; MCF-7, 72 h, cut-off 30 µM; read-out: EC50
# Method in brief: as §1
# [5] = tested on: A375 (malignant melanoma); test: SRB cytotoxicity assay, 72 h; type: cell-based, human; details: Homo sapiens, A-375, 72 h, A375, 72 h, cut-off 30 µM; read-out: EC50
# Method in brief: as §1
# [6] = tested on: HT29 (colorectal carcinoma); test: SRB cytotoxicity assay, 72 h; type: cell-based, human; details: Homo sapiens, HT-29; HT29, 72 h, cut-off 30 µM; read-out: EC50
# Method in brief: as §1
# Ovarian Cancer subpanel = test: NCI-60 screen, subpanel; details: Homo sapiens; for IC (TGI): 48 h, read-out: TGI MG_MID; for GI50: read-out: GI50 MG_MID; for CC50: read-out: LC50 MG_MID
# A498 (Renal cancer) = test: NCI-60 screen (SRB, 48 h); details: Homo sapiens; for GI50: A498; for IC (TGI): A498, 48 h, read-out: TGI; for CC50: A498, read-out: LC50
# TK-10 (Renal cancer) = test: NCI-60 screen (SRB, 48 h); details: Homo sapiens; for GI50: TK-10; for IC (TGI): TK-10, 48 h, read-out: TGI; for CC50: TK-10, read-out: LC50
# [7] = tested on: NCI-H522 (NSC lung cancer); test: NCI-60 screen (SRB, 48 h); details: Homo sapiens; for GI50: NCI-H522; for IC (TGI): NCI-H522, 48 h, read-out: TGI; for CC50: NCI-H522, read-out: LC50
compound,measurement,setting,value
Cc1ccc(S(=O)(=O)OC[C@]23CCC(C)(C)C[C@H]2C2=CC[C@@H]4[C@@]5(C)CCCNC(C)(C)[C@@H]5CC[C@@]4(C)[C@]2(C)CC3)cc1 [Compound 15],GI50,SF-268 (CNS cancer),2.32 µM
same,IC (TGI),SF-268 (CNS cancer),8.44 µM
same,CC50,SF-268 (CNS cancer),67.9 µM
same,GI50,HOP-62 (NSC lung cancer),1.81 µM
same,IC (TGI),HOP-62 (NSC lung cancer),3.56 µM
same,GI50,CCRF-CEM (Leukemia),1.93 µM
same,CC50,CCRF-CEM (Leukemia),> 100 µM
same,GI50,786-0 (Renal cancer),1.85 µM
same,IC (TGI),786-0 (Renal cancer),4.14 µM
same,GI50,HT29 (Colon cancer),1.64 µM
same,IC (TGI),HT29 (Colon cancer),3.23 µM
same,GI50,UACC-62 (Melanoma),1.68 µM
same,IC (TGI),UACC-62 (Melanoma),3.2 µM
same,GI50,DU-145 (Prostate cancer),1.79 µM
same,IC (TGI),DU-145 (Prostate cancer),3.37 µM
same,CC50,DU-145 (Prostate cancer),6.35 µM
same,IC (TGI),Melanoma subpanel,3.53 µM
same,GI50,Melanoma subpanel,1.81 µM
same,CC50,Melanoma subpanel,16.4 µM
same,GI50,T-47D (Breast cancer),1.67 µM
same,IC (TGI),T-47D (Breast cancer),3.31 µM
same,EC50,[1],2.76 ± 0.3 µM
same,GI50,[2],1.83 µM
same,IC (TGI),[2],3.66 µM
same,GI50,SNB-75 (CNS cancer),1.48 µM
same,IC (TGI),SNB-75 (CNS cancer),2.94 µM
same,CC50,SNB-75 (CNS cancer),5.85 µM
same,GI50,HCT-116 (Colon cancer),1.8 µM
same,activity at 10 µM,HCT-116 (Colon cancer),-83%
same,GI50,SW-620 (Colon cancer),1.73 µM
same,IC (TGI),SW-620 (Colon cancer),3.36 µM
same,GI50,ACHN (Renal cancer),1.68 µM
same,IC (TGI),ACHN (Renal cancer),3.07 µM
same,CC50,ACHN (Renal cancer),5.58 µM
same,EC50,[3],1.48 ± 0.2 µM
same,EC50,[4],2.02 ± 0.2 µM
same,EC50,MCF-7 (breast carcinoma),2.4 ± 0.1 µM
same,EC50,[5],2.36 ± 0.1 µM
same,EC50,[6],2.33 ± 0.2 µM
same,IC (TGI),Ovarian Cancer subpanel,3.35 µM
same,GI50,Ovarian Cancer subpanel,1.74 µM
same,CC50,Ovarian Cancer subpanel,6.03 µM
same,GI50,A498 (Renal cancer),5.99 µM
same,IC (TGI),A498 (Renal cancer),21.4 µM
same,CC50,A498 (Renal cancer),57.6 µM
same,GI50,TK-10 (Renal cancer),1.77 µM
same,IC (TGI),TK-10 (Renal cancer),3.33 µM
same,CC50,TK-10 (Renal cancer),6.27 µM
same,GI50,[7],1.69 µM
same,IC (TGI),[7],3.38 µM
same,CC50,[7],6.78 µM
Cc1ccc(S(=O)(=O)OC[C@@]2(C)CC[C@]3(C)CC[C@]4(C)C(=C3C2)C=C[C@@H]2[C@@]3(C)CCCNC(C)(C)[C@@H]3CC[C@]24C)cc1 [Compound 16],GI50,SF-268 (CNS cancer),1.95 µM
same,IC (TGI),SF-268 (CNS cancer),4.12 µM
same,CC50,SF-268 (CNS cancer),8.68 µM
same,GI50,HOP-62 (NSC lung cancer),1.84 µM
same,IC (TGI),HOP-62 (NSC lung cancer),3.59 µM
same,GI50,CCRF-CEM (Leukemia),2.14 µM
same,IC (TGI),"CCRF-CEM (Leukemia); 48 h, read-out: TGI",6.06 µM
same,CC50,CCRF-CEM (Leukemia),> 100 µM
same,Growth % of the Most Sensitive Cell Lines,"786-0 (Renal cancer); 786-0, 1 dose 10 µM",−90.69%
same,GI50,786-0 (Renal cancer),1.84 µM
same,IC (TGI),786-0 (Renal cancer),3.51 µM
same,GI50,HT29 (Colon cancer),1.48 µM
same,IC (TGI),HT29 (Colon cancer),3.08 µM
same,GI50,UACC-62 (Melanoma),1.84 µM
same,IC (TGI),UACC-62 (Melanoma),3.39 µM
same,GI50,DU-145 (Prostate cancer),1.81 µM
same,IC (TGI),DU-145 (Prostate cancer),3.4 µM
same,CC50,DU-145 (Prostate cancer),6.39 µM
same,IC (TGI),Melanoma subpanel,3.36 µM
same,GI50,Melanoma subpanel,1.77 µM
same,CC50,Melanoma subpanel,6.16 µM
same,GI50,T-47D (Breast cancer),1.55 µM
same,IC (TGI),T-47D (Breast cancer),3.26 µM
same,CC50,T-47D (Breast cancer); read-out: LC50,6.85 µM
same,EC50,[1],2.45 ± 0.1 µM
same,GI50,[2],1.86 µM
same,IC (TGI),[2],3.62 µM
same,GI50,SNB-75 (CNS cancer),1.61 µM
same,IC (TGI),SNB-75 (CNS cancer),3.1 µM
same,CC50,SNB-75 (CNS cancer),5.97 µM
same,GI50,HCT-116 (Colon cancer),1.54 µM
same,activity at 10 µM,HCT-116 (Colon cancer),-91.5%
same,GI50,SW-620 (Colon cancer),1.78 µM
same,IC (TGI),SW-620 (Colon cancer),3.54 µM
same,CC50,"SW-620 (Colon cancer); SW-620, read-out: LC50",7.04 µM
same,GI50,ACHN (Renal cancer),1.72 µM
same,IC (TGI),ACHN (Renal cancer),3.1 µM
same,CC50,ACHN (Renal cancer),5.5 µM
same,EC50,[3],2.38 ± 0.1 µM
same,EC50,[4],1.52 ± 0.1 µM
same,EC50,MCF-7 (breast carcinoma),1.54 ± 0.1 µM
same,EC50,[5],1.91 ± 0.1 µM
same,EC50,[6],1.54 ± 0.1 µM
same,IC (TGI),Ovarian Cancer subpanel,3.68 µM
same,GI50,Ovarian Cancer subpanel,1.86 µM
same,CC50,Ovarian Cancer subpanel,29.4 µM
same,GI50,A498 (Renal cancer),1.71 µM
same,IC (TGI),A498 (Renal cancer),3.13 µM
same,CC50,A498 (Renal cancer),5.74 µM
same,GI50,TK-10 (Renal cancer),1.88 µM
same,IC (TGI),TK-10 (Renal cancer),3.59 µM
same,CC50,TK-10 (Renal cancer),6.85 µM
same,GI50,[7],1.7 µM
same,IC (TGI),[7],3.36 µM
same,CC50,[7],6.64 µM
